Assay results as given in paper PMC6131557, “Selective Cytotoxicity of Dihydroorotate Dehydrogenase Inhibitors to Human Cancer Cells Under Hypoxia and Nutrient-Deprived Conditions” (Frontiers in Pharmacology, 2018).
Read-outs that look alike come from different tables or passages of the source.

How the values were obtained:
[1] = target: T1, human dihydroorotate dehydrogenase (HsDHODH) (Homo sapiens, UniProt Q02127); assay: Inhibition of recombinant human DHODH enzyme activity; assay type: biochemical; conditions: for inhibition at 1 µM: at 1,000 nM, read-out: Inhibition of HsDHODH activity (value in parentheses); for IC50: recombinant human DHODH
T1 construct: made in house
T1 sequence (Q02127 whole entry): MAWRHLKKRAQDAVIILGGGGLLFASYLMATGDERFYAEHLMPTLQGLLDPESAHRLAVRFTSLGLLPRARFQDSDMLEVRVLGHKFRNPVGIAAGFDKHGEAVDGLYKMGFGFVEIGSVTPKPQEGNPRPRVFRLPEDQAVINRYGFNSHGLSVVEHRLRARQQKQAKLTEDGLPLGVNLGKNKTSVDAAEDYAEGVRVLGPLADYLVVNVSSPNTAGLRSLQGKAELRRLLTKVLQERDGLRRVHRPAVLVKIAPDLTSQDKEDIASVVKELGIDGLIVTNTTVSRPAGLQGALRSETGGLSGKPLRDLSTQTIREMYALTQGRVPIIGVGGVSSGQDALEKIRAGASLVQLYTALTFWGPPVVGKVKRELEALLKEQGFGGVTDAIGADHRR

DLD-1 cells = assay: Cytotoxicity assay (Cell Counting Kit-8 / WST-8) on DLD-1 cells; assay type: cell-based, human; conditions: at higher concentrations (100 μM); Supplementary Figure S7
Protocol: For hypoxia and nutrient-deprived culture conditions, cells were incubated under 1% oxygen in glucose and glutamine-free DMEM (Gibco) without FBS.
DLD-1 or HDF cells were seeded at 2.5 × 10^4 cells/well on a 96-well plate with normal medium, and cultured overnight under normal culture condition. The cells were washed with PBS and the medium was replaced to either normal medium or glucose and glutamine-free DMEM without FBS. Test compounds or DMSO as a control were added to the wells. The cells in normal medium were cultured under normal culture conditions, while cells in nutrient-deprived medium were cultured under hypoxia condition. After 24 or 48 h incubation, the cells were washed with PBS, 100 μl of fresh normal medium, and 10 μl of Cell Counting Kit-8 solution (Donjindo, Japan) was added to each well. After 3 h incubation under normal culture condition, the absorbance was measured at 450 nm using SpectraMax M2e-TUY microplate reader (Molecular Devices). Cell viability of test wells was calculated based on absorbance of control wells containing DMSO according to manufacturer’s protocol.

Complexes I–III = assay: NADH-cytochrome c reductase (complexes I–III) activity, bovine mitochondria; assay type: biochemical
Protocol: (§1) Recombinant human DHODH was purified, crystallized, and assayed as previously described ([Inaoka et al., 2016]) without modification. Bovine mitochondrial fractions were prepared as previously described ([Kita et al., 1988]) and NADH dehydrogenase (complex I), succinate:quinone reductase (complex II), quinol oxidase (complexes III–IV), NADH-cytochrome c reductase (complexes I–III), and succinate-cytochrome c (complexes II–III) activities were assayed following an established method ([Takamiya et al., 1986]; [Miyadera et al., 2001]; [Matsumoto et al., 2008]; [Kido et al., 2010]; [Nihashi et al., 2017]).

Complex II–III = assay: Succinate-cytochrome c reductase (complexes II–III) activity, bovine mitochondria; assay type: biochemical
Protocol: as §1

Complex I = assay: NADH dehydrogenase (complex I) activity, bovine mitochondria; assay type: biochemical; conditions: at 5 μM
Protocol: as §1

Complex II = target: T2, Complex II (Bos taurus, UniProt P35720+Q3T189+Q95123); assay: Succinate:quinone reductase (complex II) activity, bovine mitochondria; assay type: biochemical
T2 construct: from tissue; host or cells: bovine mitochondrial fraction / sub-mitochondrial particles
T2 sequence (P31039 45-665 partner limits assumed): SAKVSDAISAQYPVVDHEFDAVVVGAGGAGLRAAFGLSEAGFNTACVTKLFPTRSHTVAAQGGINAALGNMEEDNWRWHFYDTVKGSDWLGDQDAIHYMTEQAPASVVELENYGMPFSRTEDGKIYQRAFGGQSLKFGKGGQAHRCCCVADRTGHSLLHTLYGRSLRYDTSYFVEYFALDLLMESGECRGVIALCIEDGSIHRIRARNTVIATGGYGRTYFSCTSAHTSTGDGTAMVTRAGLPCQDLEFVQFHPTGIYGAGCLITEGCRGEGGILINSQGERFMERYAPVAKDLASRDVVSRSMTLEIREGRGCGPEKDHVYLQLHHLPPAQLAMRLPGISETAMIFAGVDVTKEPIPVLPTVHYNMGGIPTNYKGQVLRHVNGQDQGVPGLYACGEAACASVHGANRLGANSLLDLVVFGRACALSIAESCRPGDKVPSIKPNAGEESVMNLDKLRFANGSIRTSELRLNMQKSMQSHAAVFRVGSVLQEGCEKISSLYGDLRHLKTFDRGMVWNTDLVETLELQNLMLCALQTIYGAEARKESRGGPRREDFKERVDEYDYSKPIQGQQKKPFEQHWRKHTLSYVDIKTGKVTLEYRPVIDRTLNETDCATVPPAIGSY
T2 sequence (Q3T189 29-280): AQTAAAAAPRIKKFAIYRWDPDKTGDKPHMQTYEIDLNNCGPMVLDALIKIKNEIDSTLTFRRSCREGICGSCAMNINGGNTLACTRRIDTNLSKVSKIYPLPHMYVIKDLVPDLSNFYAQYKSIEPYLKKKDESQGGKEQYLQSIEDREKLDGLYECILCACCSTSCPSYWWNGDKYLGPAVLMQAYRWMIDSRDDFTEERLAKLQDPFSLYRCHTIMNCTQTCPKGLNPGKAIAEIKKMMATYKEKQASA
T2 sequence (P35720 30-169): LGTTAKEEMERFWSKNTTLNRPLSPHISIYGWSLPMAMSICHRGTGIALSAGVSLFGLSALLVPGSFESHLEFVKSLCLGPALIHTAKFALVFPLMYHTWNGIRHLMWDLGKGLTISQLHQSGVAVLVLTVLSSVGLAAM
T2 sequence (Q95123 56-158): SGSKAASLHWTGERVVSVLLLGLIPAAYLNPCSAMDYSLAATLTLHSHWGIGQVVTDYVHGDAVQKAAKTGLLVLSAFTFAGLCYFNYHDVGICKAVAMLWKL

Complex III = target: T3, Complex III (Bos taurus, UniProt P00157); assay: Quinol oxidase (complex III) activity, bovine mitochondria; assay type: biochemical; conditions: ubiquinol oxidase activity
T3 construct: from tissue; host or cells: bovine mitochondrial fraction / sub-mitochondrial particles

[2] = purified enzyme fixed at 10 nM, read-out: IC50 (nM), inhibition of human DHODH

Row | Structure (SMILES) | inhibition at 1 µM [1] | IC50 [1, 2] | further results
1 | CC(=O)c1c(C)c(Cl)c(O)c(C/C=C(\C)CC/C=C(\C)C2CC(=O)C(C)(C)O2)c1O (stereo not shown) [Compound 19] | 3% | > 1000 nM | HsDHODH inhibition activity (in words) [1]: lost
2 | Cc1c(Cl)c(O)c(CCC(C)CCCCOC(=O)C(C)(C)C)c(O)c1C=O (stereo not shown) [Compound 16] | 21% | > 1000 nM | 
3 | C/C(=C\Cc1c(O)c(Cl)c(C)c(CO)c1O)CC/C=C(\C)COC(=O)C(C)(C)C [Compound 20] |  | 3530 nM | 
4 | C/C(O)=C(\C#N)C(=O)Nc1ccc(C(F)(F)F)cc1 [Compound A771726, teriflunomide, reference compound] |  |  | effect on DLD-1 under hypoxia/nutrient-deprived conditions (in words) (DLD-1 cells): specific inhibition under hypoxia/nutrient-deprived condition was observed
5 | COc1[nH]c(=O)c(C(=O)[C@@H](C)C[C@H](C)[C@@H](Cl)CCl)c(O)c1OC [Atpenin A5, reference compound] |  |  | IC50 ([1]; IC50 (μM) HsDHODH, Table 6): > 10000 nM; IC50 (Complexes I–III): 2.8 ± 0.44 µM; IC50 (Complex II–III): 0.0063 ± 0.0002 µM; Inhibition (%) Complex I (Complex I): 10 ± 2.7%; inhibition at 5 µM (Complex II): 97 ± 1%; inhibition at 5 µM (Complex III): 0%
6 | CC(C)=CCC/C(C)=C/Cc1c(O)c(Cl)cc(C=O)c1O [Compound 24] | 36% | > 1000 nM | fold increase in the IC50 in comparison to 3 ([1]; HsDHODH IC50 versus compound 3): > 13 fold
7 | Cc1c(Cl)c(O)c(CCC(C)CCCC(C)COC(=O)C(C)(C)C)c(O)c1C=O (stereo not shown) [Compound 14] | 35% | > 1000 nM | HsDHODH inhibition activity (in words) [1]: abolished
8 | CC(C)=CCC/C(C)=C/Cc1c(O)c(Cl)c(C)c(C=O)c1O [Compound 3, colletochlorin B] |  | 74.1 ± 22 nM | 
9 | CCCCCC(C)CCc1c(O)c(Cl)c(C)c(C=O)c1O (stereo not shown) [Compound 18] | 37% | > 1000 nM | 
